Residue numbers refer to the chain shown, from its start.
Key:
RlmI [1] = target: T1, RlmI (Escherichia coli, UniProt P75876); test: ITC; assay type: binding
T1 construct: pCA24N or pGEX4T-1 plasmid; His tag detected by anti-His; purified
T1 sequence (P75876 1-396): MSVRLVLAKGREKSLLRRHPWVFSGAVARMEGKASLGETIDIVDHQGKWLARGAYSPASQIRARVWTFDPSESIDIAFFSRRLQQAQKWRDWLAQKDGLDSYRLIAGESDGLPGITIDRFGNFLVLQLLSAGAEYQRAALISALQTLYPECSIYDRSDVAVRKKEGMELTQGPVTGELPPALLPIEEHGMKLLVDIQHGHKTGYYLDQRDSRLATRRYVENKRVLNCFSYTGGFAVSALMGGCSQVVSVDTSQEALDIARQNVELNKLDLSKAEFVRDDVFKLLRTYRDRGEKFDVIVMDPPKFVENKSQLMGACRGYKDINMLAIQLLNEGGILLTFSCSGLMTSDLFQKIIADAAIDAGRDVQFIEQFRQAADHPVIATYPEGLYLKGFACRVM

RlmI [2] = target: T2, RlmI (Escherichia coli, UniProt P75876, K201A); test: ITC; assay type: binding
T2 construct: pCA24N or pGEX4T-1 plasmid; His tag detected by anti-His; purified
T2 sequence (P75876 1-396 K201A): T1 sequence (P75876 1-396) with K201A

RlmI [3] = target: T3, RlmI (Escherichia coli, UniProt P75876, R103A); test: ITC; assay type: binding
T3 construct: pCA24N or pGEX4T-1 plasmid; His tag detected by anti-His; purified
T3 sequence (P75876 1-396 R103A): T1 sequence (P75876 1-396) with R103A

RlmI [4] = target: T1, RlmI; test: in vitro rRNA methylation, HPLC; assay type: biochemical
RlmI [5] = target: T4, RlmI (Escherichia coli, UniProt P75876, R64A); test: ITC; assay type: binding
T4 construct: pCA24N or pGEX4T-1 plasmid; His tag detected by anti-His; purified
T4 sequence (P75876 1-396 R64A): T1 sequence (P75876 1-396) with R64A

RlmE = target: T5, RlmE (Escherichia coli, UniProt P0C0R7); test: in vitro rRNA methylation, HPLC; assay type: biochemical
T5 construct: pCA24N or pGEX4T-1 plasmid; purified
T5 sequence (P0C0R7 1-209): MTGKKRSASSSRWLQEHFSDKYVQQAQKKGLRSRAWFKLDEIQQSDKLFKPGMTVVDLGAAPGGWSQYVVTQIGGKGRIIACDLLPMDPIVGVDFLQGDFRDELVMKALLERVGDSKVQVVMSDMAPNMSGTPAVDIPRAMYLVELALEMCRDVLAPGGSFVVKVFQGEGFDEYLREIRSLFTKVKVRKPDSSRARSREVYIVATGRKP

RlmI [6] = target: T6, RlmI (Escherichia coli, UniProt P75876, G114A); test: ITC; assay type: binding
T6 construct: pCA24N or pGEX4T-1 plasmid; His tag detected by anti-His; purified
T6 sequence (P75876 1-396 G114A): T1 sequence (P75876 1-396) with G114A

With `Nc1nc2c(ncn2[C@@H]2O[C@@H]3CO[P@](=O)(O)O[C@H]4[C@@H](O)[C@H](n5cnc6c(=O)[nH]c(N)nc65)O[C@@H]4CO[P@](=O)(O)O[C@H]3[C@H]2O)c(=O)[nH]1` [c-di-GMP] the Kd (RlmI [1]) was 1.3 µM, the Kd (RlmI [2]) was 401 µM and the Kd (RlmI [3]) was 76.5 µM. It also gave an inhibition at 5 µM (RlmI [4]) of 49%, a Kd (RlmI [5]) of 102 µM and an inhibition at 5 µM (RlmE) of 31%. For the same compound, the Kd (RlmI [6]) was 149 µM.
